Test results as given in patent publication US11427548B2 (Arvinas Operations, Inc., priority 2015, dated 2022).
Where two headings read alike, the source gives them in different places.

Biological target: T1, Androgen Receptor (Homo sapiens, UniProt P10275)
T1 construct: endogenous in cells; host or cells: VCaP cells
T1 sequence (P10275 1-920): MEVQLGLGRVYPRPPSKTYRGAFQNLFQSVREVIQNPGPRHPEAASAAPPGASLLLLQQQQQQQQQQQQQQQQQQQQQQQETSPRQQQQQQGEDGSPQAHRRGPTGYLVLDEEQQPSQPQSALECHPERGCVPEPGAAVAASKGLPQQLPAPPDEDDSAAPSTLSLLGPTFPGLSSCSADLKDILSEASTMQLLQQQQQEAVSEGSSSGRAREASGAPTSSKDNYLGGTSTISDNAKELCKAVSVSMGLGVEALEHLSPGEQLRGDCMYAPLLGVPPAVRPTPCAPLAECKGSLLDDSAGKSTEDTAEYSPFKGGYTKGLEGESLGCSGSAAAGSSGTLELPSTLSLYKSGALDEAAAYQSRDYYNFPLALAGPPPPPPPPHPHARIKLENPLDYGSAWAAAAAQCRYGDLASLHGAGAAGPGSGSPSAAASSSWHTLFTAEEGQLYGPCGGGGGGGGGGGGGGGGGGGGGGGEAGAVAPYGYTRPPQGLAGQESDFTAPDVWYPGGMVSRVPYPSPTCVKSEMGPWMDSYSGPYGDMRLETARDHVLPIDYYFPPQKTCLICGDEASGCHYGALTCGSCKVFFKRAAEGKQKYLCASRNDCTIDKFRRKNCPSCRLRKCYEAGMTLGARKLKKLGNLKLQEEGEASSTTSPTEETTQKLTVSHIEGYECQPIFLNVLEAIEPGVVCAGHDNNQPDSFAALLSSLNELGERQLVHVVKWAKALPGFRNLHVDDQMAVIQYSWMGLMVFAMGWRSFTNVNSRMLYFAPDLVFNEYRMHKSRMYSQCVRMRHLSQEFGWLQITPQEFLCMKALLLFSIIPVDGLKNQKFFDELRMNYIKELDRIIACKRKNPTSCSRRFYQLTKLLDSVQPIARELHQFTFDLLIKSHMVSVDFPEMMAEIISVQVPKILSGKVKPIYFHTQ
Assay: Androgen Receptor ELISA assay (PathScan AR ELISA) in VCaP cells: AR degradation, Dmax and DC50
Format: cell-based
Settings: for DC50: read-out: VCaP DC50; for Dmax: VCaP
Outline: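 After 24 h exposure of VCaP cells (charcoal-stripped serum, 0.1 nM R1881 agonist, 0.1% DMSO) to seven half-log compound concentrations, residual AR in lysates was measured by PathScan ELISA (TMB absorbance, 450 nm). Cells were plated at 30,000/well and grown at least 3 days beforehand.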

[1] = VCaP cells, Table 36, read-out: VCaP Dmax (%)
[2] = read-out: VCaP Dmax (%), VCaP cells, Table 36

Structure (SMILES) | DC50 (VCaP cells, Table 36) [nM] | Dmax [1] [%] | Dmax [2] [%] | Dmax (read-out: VCaP Dmax (%)) [%]
Cc1ncsc1-c1ccc([C@H](C)NC(=O)[C@@H]2C[C@@H](O)CN2C(=O)[C@@H](NC(=O)CN2CCN(CCC3(c4ccc(C(=O)N[C@H]5C(C)(C)[C@H](Oc6ccc(C#N)c(Cl)c6)C5(C)C)cc4)COC3)CC2)C(C)(C)C)cc1 [Example 744, (2S,4R)-1-((S)-2-(2-(4-(2-(3-(4-(((1r,3r)-3-(3-chloro-4-cyanophenoxy)-2,2,4,4-tetramethylcyclobutyl)carbamoyl)phenyl)oxetan-3-yl)ethyl)piperazin-1-yl)acetamido)-3,3-dimethylbutanoyl)-4-hydroxy-N-((S)-1-(4-(4-methylthiazol-5-yl)phenyl)ethyl)pyrrolidine-2-carboxamide] | > 501 |  |  | < 25
Cc1ncsc1-c1ccc([C@H](C)NC(=O)[C@@H]2C[C@@H](O)CN2C(=O)[C@H](NC(=O)CN2CCN(CCCc3ccc(C(=O)N[C@H]4C(C)(C)[C@H](Oc5ccc(C#N)c(C#N)c5)C4(C)C)cc3)CC2)C2COC2)cc1 [Example 745, (2S,4R)-1-((R)-2-(2-(4-(3-(4-(((1r,3r)-3-(3,4-dicyanophenoxy)-2,2,4,4-tetramethylcyclobutyl)carbamoyl)phenyl)propyl)piperazin-1-yl)acetamido)-2-(oxetan-3-yl)acetyl)-4-hydroxy-N-((S)-1-(4-(4-methylthiazol-5-yl)phenyl)ethyl)pyrrolidine-2-carboxamide] | > 501 |  | < 25 | 
Cc1ncsc1-c1ccc([C@H](C)NC(=O)[C@@H]2C[C@@H](O)CN2C(=O)[C@@H](NC(=O)CCCc2ccc(C(=O)N[C@H]3C(C)(C)[C@H](Oc4ccc(C#N)c(Cl)c4)C3(C)C)cc2)C(C)(C)C)cc1 [Example 747, (2S,4R)-1-((S)-2-(4-(4-(((1r,3S)-3-(3-chloro-4-cyanophenoxy)-2,2,4,4-tetramethylcyclobutyl)carbamoyl)phenyl)butan-amido)-3,3-dimethylbutanoyl)-4-hydroxy-N-((S)-1-(4-(4-methylthiazol-5-yl)phenyl)ethyl)pyrrolidine-2-carboxamide] | > 501 | < 25 |  | 
Cc1ncsc1-c1ccc([C@H](C)NC(=O)[C@@H]2C[C@@H](O)CN2C(=O)C(NC(=O)CCCCCc2ccc(C(=O)N[C@H]3C(C)(C)[C@H](Oc4ccc(C#N)c(Cl)c4)C3(C)C)cc2)C(C)(C)C)cc1 (stereo partly drawn) [Example 748, (2S,4R)-1-((S)-2-(6-(4-(((1r,3r)-3-(3-chloro-4-cyanophenoxy)-2,2,4,4-tetramethylcyclobutyl)carbamoyl)phenyl)hexan-amido)-3,3-dimethylbutanoyl)-4-hydroxy-N-((S)-1-(4-(4-methylthiazol-5-yl)phenyl)ethyl)pyrrolidine-2-carboxamide] | < 50 | 26 to 50 |  | 
Cc1ncsc1-c1ccc([C@H](C)NC(=O)[C@@H]2C[C@@H](O)CN2C(=O)[C@H](NC(=O)CN2CCN(CCCc3ccc(C(=O)N[C@H]4C(C)(C)[C@H](Oc5ccc(C#N)c(Cl)c5)C4(C)C)cc3)CC2)C2COC2)cc1 [Example 750, (2S,4R)-1-((R)-2-(4-(4-(3-(4-(((1r,3r)-3-(3-chloro-4-caynophenoxy)-2,2,4,4-tetramethylcyclobutyl)carbamoyl)phenyl)propyl)piperazin-1-yl)acetamido)-2-(oxetan-3-yl)acetyl)-4-hydroxy-N-((S)-1-(4-(4-methylthiazol-5-yl)phenyl)ethyl)pyrrolidine-2-carboxamide] | > 501 | < 25 |  | 
Cc1ncsc1-c1ccc([C@H](C)NC(=O)[C@@H]2C[C@@H](O)CN2C(=O)[C@@H](NC(=O)CN2CCN(CCCc3ccc(C(=O)N[C@H]4C(C)(C)[C@H](Oc5ccc(C#N)c(Cl)c5)C4(C)C)cc3)CC2)C2COC2)cc1 [Example 751, (2S,4R)-1-((S)-2-(2-(4-(3-(4-(((1r,3r)-3-(3-chloro-4-cyanophenoxy)-2,2,4,4-tetramethylcyclobutyl)carbamoyl)phenyl)propyl)piperazin-1-yl)acetamido)-2-(oxetan-3-yl)acetyl)-4-hydroxy-N-((S)-1-(4-(4-methylthiazol-5-yl)phenyl)ethyl)pyrrolidine-2-carboxamide] | > 501 | < 25 |  | 
Cc1ncsc1-c1ccc(CNC(=O)[C@@H]2C[C@@H](O)CN2C(=O)[C@H](C(C)C)N2Cc3ccccc3C2=O)c(N2CCN(CCCc3ccc(C(=O)N[C@H]4C(C)(C)[C@H](Oc5ccc(C#N)c(Cl)c5)C4(C)C)cc3)CC2)c1 [Example 752, (2S,4R)-N-(2-(4-(3-(4-(((1r,3r)-3-(3-chloro-4-cyanophenoxy)-2,2,4,4-tetramethylcyclobutyl)carbamoyl)phenyl)propyl)piperazin-1-yl)-4-(4-methylthiazol-5-yl)benzyl)-4-hydroxy-1-((S)-3-methyl-2-(1-oxoisoindolin-2-yl)butanoyl)pyrrolidine-2-carboxamide] | < 50 | 51 to 70 |  | 
Cc1ncsc1-c1ccc(CNC(=O)[C@@H]2C[C@@H](O)CN2C(=O)[C@H](C(C)C)N2Cc3ccccc3C2=O)c(N2CCN(CCCc3ccc(C(=O)N[C@H]4C(C)(C)[C@H](Oc5ccc(C#N)c(C(F)(F)F)c5)C4(C)C)cc3)CC2)c1 [Example 753, (2S,4R)-N-(2-(4-(3-(4-(((1r,3r)-3-(4-cyano-3-(trifluoromethyl)phenoxy)-2,2,4,4-tetramethylcyclobutyl)carbamoyl)phenyl)propyl)piperazin-1-yl)-4-(4-methylthiazol-5-yl)benzyl)-4-hydroxy-1-((S)-3-methyl-2-(1-oxoisoindolin-2-yl)butanoyl)pyrrolidine-2-carboxamide] | < 50 | 51 to 70 |  | 

Continued, in another order:

DC50 (VCaP cells, Table 36) [nM] | Dmax [1] [%] | Dmax [2] [%] | Structure (SMILES) | Dmax (read-out: VCaP Dmax (%)) [%]
> 501 | < 25 |  | CC(C)[C@H](OCCN1CCN(c2ccc(C(=O)N[C@H]3C(C)(C)[C@H](Oc4ccc(C#N)c(Cl)c4)C3(C)C)cn2)CC1)C(=O)N[C@H](C(=O)N1C[C@H](O)C[C@H]1C(=O)NCc1ccc(Cl)cc1)C(C)(C)C [Example 742, N-((1r,3r)-3-(3-chloro-4-cyanophenoxy)-2,2,4,4-tetramethylcyclobutyl)-6-(4-(2-(((S)-1-(((S)-1-((2S,4R)-2-((4-chlorobenzyl)carbamoyl)-4-hydroxypyrrolidin-1-yl)-3,3-dimethyl-1-oxoutan-2-yl)amino)-3-methyl-1-oxobutan-2-yl)oxy)ethyl)piperazin-1-yl)nicotinamide] | 
> 501 | < 25 |  | CC(C)[C@@H](C(=O)N1C[C@H](O)C[C@H]1C(=O)NCc1ccc(Cl)cc1OCCN1CCN(c2ccc(C(=O)N[C@H]3C(C)(C)[C@H](Oc4ccc(C#N)c(Cl)c4)C3(C)C)cn2)CC1)N1Cc2ccccc2C1=O [Example 743, 6-(4-(2-(5-chloro-2-(((2S,4R)-4-hydroxy-1-((S)-3-methyl-2-(1-oxoisoindolin-2-yl)butanoyl)pyrrolidine-2-carboxamido)methyl)phenoxy)ethyl)piperazin-1-yl)-N-((1r,3r)-3-(3-chloro-4-cyanophenoxy)-2,2,4,4-tetramethylcyclobutyl) nicotinamide] | 
> 501 |  | < 25 | Cc1ncsc1-c1ccc([C@H](C)NC(=O)[C@@H]2C[C@@H](O)CN2C(=O)[C@@H](NC(=O)CN2CCN(CCCc3ccc(C(=O)N[C@H]4C(C)(C)[C@H](Oc5ccc(C#N)c(C#N)c5)C4(C)C)cc3)CC2)C2COC2)cc1 [Example 746, (2S,4R)-1-((S)-2-(2-(4-(3-(4-(((1r,3r)-3-(3,4-dicyanophenoxy)-2,2,4,4-tetramethylcyclobutyl)carbamoyl)phenyl)propyl)piperazin-1-yl)acetamido)-2-(oxetan-3-yl)acetyl)-4-hydroxy-N-((S)-1-(4-(4-methylthiazol-5-yl)phenyl)ethyl)pyrrolidine-2-carboxamide] | 
< 50 | > 71 |  | Cc1ncsc1-c1ccc([C@H](C)NC(=O)C2C[C@@H](O)CN2C(=O)[C@@H](NC(=O)CCCCCCc2ccc(C(=O)N[C@H]3C(C)(C)[C@H](Oc4ccc(C#N)c(Cl)c4)C3(C)C)cc2)C(C)(C)C)cc1 (stereo partly drawn) [Example 749, (2S,4R)-1-((S)-2-(7-(4-(((1r,3r)-3-(3-chloro-4-cyanophenoxy)-2,2,4,4-tetramethylcyclobutyl)carbamoyl)phenyl)heptan-amido)-3,3-dimethylbutanoyl)-4-hydroxy-N-((S)-1-(4-(4-methylthiazol-5-yl)phenyl)ethyl)pyrrolidine-2-carboxamide] | 
